The Kinase Knowledgebase extract (Sharma et al. 2016)

Legend:
EGFR (human) [1] = target: EGFR (human) (UniProt P00533); conditions: huvec
EGFR (human) [2] = target: EGFR (human) (UniProt P00533); experiment: Assessment of DiFi Cell Growth Inhibition by MTS Assay
EGFR = EGFR (UniProt P00533)
Chain of EGFR (P00533 whole entry, looked up): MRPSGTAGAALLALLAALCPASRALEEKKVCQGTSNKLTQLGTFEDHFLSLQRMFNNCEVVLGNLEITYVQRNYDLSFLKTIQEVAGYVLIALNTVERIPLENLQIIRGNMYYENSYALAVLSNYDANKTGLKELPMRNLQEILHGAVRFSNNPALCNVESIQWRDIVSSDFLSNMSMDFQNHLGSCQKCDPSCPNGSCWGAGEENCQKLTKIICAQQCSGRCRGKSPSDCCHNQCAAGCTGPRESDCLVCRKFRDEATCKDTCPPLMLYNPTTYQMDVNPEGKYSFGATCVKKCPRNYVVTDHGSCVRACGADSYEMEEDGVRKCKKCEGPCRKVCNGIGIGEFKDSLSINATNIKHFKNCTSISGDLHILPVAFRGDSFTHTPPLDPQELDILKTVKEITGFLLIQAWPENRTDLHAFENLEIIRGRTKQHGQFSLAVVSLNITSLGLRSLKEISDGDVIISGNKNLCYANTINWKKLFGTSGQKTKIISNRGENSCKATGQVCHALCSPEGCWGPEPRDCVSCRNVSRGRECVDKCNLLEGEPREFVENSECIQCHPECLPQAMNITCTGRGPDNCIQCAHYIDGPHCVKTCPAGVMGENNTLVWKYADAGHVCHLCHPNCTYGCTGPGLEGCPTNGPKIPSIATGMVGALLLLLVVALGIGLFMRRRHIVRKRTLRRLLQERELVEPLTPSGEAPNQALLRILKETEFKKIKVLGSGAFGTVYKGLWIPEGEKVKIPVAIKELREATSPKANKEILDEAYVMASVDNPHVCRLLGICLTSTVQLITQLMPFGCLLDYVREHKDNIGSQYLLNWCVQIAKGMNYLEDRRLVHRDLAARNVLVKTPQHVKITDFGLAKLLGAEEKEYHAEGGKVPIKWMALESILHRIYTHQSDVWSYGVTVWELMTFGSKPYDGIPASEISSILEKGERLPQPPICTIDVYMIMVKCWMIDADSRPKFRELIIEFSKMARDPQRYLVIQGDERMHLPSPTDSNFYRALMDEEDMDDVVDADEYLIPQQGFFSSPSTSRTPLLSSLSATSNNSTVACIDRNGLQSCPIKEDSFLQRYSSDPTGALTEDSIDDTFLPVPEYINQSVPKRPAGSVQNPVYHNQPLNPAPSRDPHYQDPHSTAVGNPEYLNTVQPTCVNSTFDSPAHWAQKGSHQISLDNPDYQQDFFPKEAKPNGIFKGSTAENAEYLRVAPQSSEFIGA

Chain of EGFR (human) (P00533 whole entry, looked up): as above

Row | SMILES | IC50 (EGFR (human) [1]) [µM] | IC50 (EGFR (human) [2]) [µM] | IC50 (EGFR) [µM]
1 | Cc1ccc(Nc2ncnn3c(C)ccc23)cc1O | 0.101 | > 10 | 
2 | Cc1ccc2c(Nc3ccc(F)c(Cl)c3)ncnn12 | > 2.5 | > 10 | 
3 | Cc1cc2c(Nc3ccc(F)c(Cl)c3)ncnn2c1 | 0.509 | 1.6 | 
4 | Cc1ccc(Nc2ncnn3cccc23)cc1O |  | > 10 | 

Now from value to molecule:

Row | IC50 (EGFR (human) [1]) [µM] | IC50 (EGFR (human) [2]) [µM] | IC50 (EGFR) [µM] | SMILES
5 | 0.27 | > 10 |  | Cc1ccc(Nc2ncnn3ccc(C)c23)cc1O
6 |  | > 10 |  | Cc1ccc(Nc2ncnn3cc(C)c(C)c23)cc1O
7 | 0.345 | 1.84 | 0.118 | Fc1ccc(Nc2ncnn3cccc23)cc1Cl
8 |  | > 10 |  | Cc1cc2c(Nc3ccc(C)c(O)c3)ncnn2c1
9 | 0.602 | 3.06 |  | Cc1ccn2ncnc(Nc3ccc(F)c(Cl)c3)c12
